Experimental data as given in patent publication US9586963B2 (GENFIT, priority 2011, dated 2017).

Tests used:
Rev-Erb alpha = biological target: T1, Rev-Erb alpha (Homo sapiens, UniProt P20393); experiment: M2H (mammalian two-hybrid) cellular activation assay of Rev-Erb alpha; type: cell-based; conditions: M2H assay, HEK293 cells; for EC50: Gal4-Rev-Erb alpha / VP16-NCoR, luciferase reporter; for Emax: relative to DMSO, at the tested dose, read-out: TOP activation
T1 sequence (P20393 284-614 limits assumed): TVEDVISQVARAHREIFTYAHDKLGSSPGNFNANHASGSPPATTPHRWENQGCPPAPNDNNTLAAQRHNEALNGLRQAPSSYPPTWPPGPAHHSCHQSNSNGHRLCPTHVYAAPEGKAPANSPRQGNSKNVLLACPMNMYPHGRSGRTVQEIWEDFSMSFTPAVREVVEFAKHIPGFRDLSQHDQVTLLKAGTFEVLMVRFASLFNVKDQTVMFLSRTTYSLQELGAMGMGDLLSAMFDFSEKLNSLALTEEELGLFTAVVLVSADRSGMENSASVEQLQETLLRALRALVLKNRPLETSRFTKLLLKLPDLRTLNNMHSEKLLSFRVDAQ
Method in brief: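 Six-point dose-response, 18 h, 37 °C, serum-free, in HEK293 cells carrying a Gal4-RE luciferase reporter with Gal4-Rev-Erb alpha or beta plus VP16-NCoR (corepressor interaction readout). EC50 and TOP activation (%) derived from luminescence across four experiments.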

SMILES | EC50 (Rev-Erb alpha) [nM] | melting point [°C] | Emax (Rev-Erb alpha) [%]
Clc1ccc(-c2cccc(Oc3ccc4nnc(Cl)n4n3)c2)cc1 [Cpd.3-12, 6-(4′-chloro-biphenyl-3-yloxy)-3-chloro-[1,2,4]triazolo[4,3-b]pyridazine] | 1000 to 6000 | 128 | 
O=C(c1ccccc1)c1cc(Br)ccc1Oc1ccc2nnc(Cl)n2n1 [Cpd.4-145, 3-chloro-6-(4-bromo-2-benzoyl-phenoxy)-[1,2,4]triazolo[4,3-b]pyridazine] | 1000 to 6000 | 135 to 137 | 
Cc1cc(Oc2ccc(Cl)cc2-c2cncnc2)nn2c(Cl)nnc12 [Cpd.5-58, 3-chloro-6-(4-chloro-2-(pyrimidin-5-yl)phenoxy)-8-methyl-[1,2,4]triazolo[4,3-b]pyridazine] | 1000 to 6000 | 208 to 210 | 
COC(=O)CCNc1ccc(Oc2ccc3nnc(Cl)n3n2)c(-c2ccccc2)c1 [Cpd.4-190, 3-chloro-6-(5-methyloxycarbonylethylamino-biphenyl-2-yloxy)-[1,2,4]triazolo[4,3-b]pyridazine] | 1000 to 6000 | 52 to 57 | 
COc1ncc(C(F)(F)F)cc1-c1ccc(C(F)(F)F)cc1Oc1nn2c(Cl)nnc2cc1C [Cpd.5-26, 3-chloro-7-methyl-6-((2-(2-methoxy-5-(trifluoromethyl)pyridin-3-yl))-5-(trifluoromethyl)phenoxy)-[1,2,4]triazolo[4,3-b]pyridazine] | 1000 to 6000 | 194 to 196 | 
COc1ncc(C)cc1-c1ccc(C(F)(F)F)cc1Oc1cc(C)c2nnc(Cl)n2n1 [Cpd.5-27, 3-chloro-8-methyl-6-((2-(2-methoxy-5-methylpyridin-3-yl))-5-(trifluoromethyl)phenoxy)-[1,2,4]triazolo[4,3-b]pyridazine] | 1000 to 6000 | 117 to 119 | 
Clc1nnc2ccc(Oc3cc(CN4CCOCC4)ccc3-c3ccccc3)nn12 [Cpd.4-64, 3-chloro-6-(4-morpholinomethyl-biphenyl-2-yloxy)-[1,2,4]triazolo[4,3-b]pyridazine] | 1000 to 6000 | 162 to 163 | 
O=[N+]([O-])c1cccc(-c2cc(F)ccc2Oc2ccc3nnc(Cl)n3n2)c1 [Cpd.4-187, 3-chloro-6-(5-fluoro-3′-nitrobiphenyl-2-yloxy)-[1,2,4]triazolo[4,3-b]pyridazine] | 1000 to 6000 | 190.5 | 
COC(=O)c1cccc(-c2ccccc2Oc2ccc3nnc(Cl)n3n2)c1 [Cpd.4-140, 3-Chloro-6-(3′-(methyloxycarbonyl)biphenyl-2-yloxy)-[1,2,4]triazolo[4,3-b]pyridazine] | > 6000 | 236 to 246 | > 130
Oc1cccc(-c2ccccc2Oc2ccc3nnc(Cl)n3n2)c1 [Cpd.4-21, 6-(3′-hydroxy-biphenyl-2-yloxy)-3-chloro-[1,2,4]triazolo[4,3-b]pyridazine] | 100 to 1000 | 203.7 | 
Clc1nnc2ccc(Oc3ccc(CN4CCCCC4)cc3-c3ccccc3)nn12 [Cpd.4-156, 3-chloro-6-(5-piperidin-1-ylmethylbiphenyl-2-yloxy)-[1,2,4]triazolo[4,3-b]pyridazine] | > 6000 | 70 to 70.4 | > 130
Fc1ccc(-c2cccc(Oc3ccc4nnc(Cl)n4n3)c2)cc1 [Cpd.3-9, 6-(4′-fluoro-biphenyl-3-yloxy)-3-chloro-[1,2,4]triazolo[4,3-b]pyridazine] | 100 to 1000 | 88 | 
CCc1nnc2cc(C)c(Oc3cc(C(F)(F)F)ccc3-c3cncnc3)nn12 [Cpd.5-43, 3-ethyl-7-methyl-6-(2-(pyrimidin-5-yl)-5-(trifluoromethyl)phenoxy)-[1,2,4]triazolo[4,3-b]pyridazine] | 1000 to 6000 | 149 to 150 | 
FC(F)(F)Oc1ccc(-c2ccccc2)c(Oc2ccc3nnc(Cl)n3n2)c1 [Cpd.4-68, 3-chloro-6-(4-trifluoromethyloxy-biphenyl-2-yloxy)-[1,2,4]triazolo[4,3-b]pyridazine] | 100 to 1000 | 225.4 to 228.2 | 
Cc1cc(Oc2cc(C(F)(F)F)ccc2-c2cncnc2)nn2c(C(F)(F)F)nnc12 [Cpd.5-63, 8-methyl-6-(2-(pyrimidin-5-yl)-5-(trifluoromethyl)phenoxy)-3-(trifluoromethyl)-[1,2,4]triazolo[4,3-b]pyridazine] | 1000 to 6000 | 167 to 172 | 
Clc1ccccc1-c1cccc(Oc2ccc3nnc(Cl)n3n2)c1 [Cpd.3-11, 6-(2′-chloro-biphenyl-3-yloxy)-3-chloro-[1,2,4]triazolo[4,3-b]pyridazine] | 1000 to 6000 | 82.4 | 
NC(=O)c1ccc(Oc2ccc3nnc(Cl)n3n2)c(-c2ccccc2)c1 [Cpd.4-70, 3-chloro-6-(5-aminocarbonyl-biphenyl-2-yloxy)-[1,2,4]triazolo[4,3-b]pyridazine] | > 6000 | 196.5 to 198.4 | > 130
FC(F)(F)c1ccc(-c2cccnc2)c(Oc2ccc3nnc(C(F)(F)F)n3n2)c1 [Cpd.4-126, 3-(trifluoromethyl)-6-(2-(pyridin-3-yl)-5-(trifluoromethyl)phenoxy)-[1,2,4]triazolo[4,3-b]pyridazine] | 1000 to 6000 | 69 to 70 | 
Cc1cc(Oc2cc(C(F)(F)F)ccc2-c2cccnc2)nn2c(C(F)(F)F)nnc12 [Cpd.5-32, 8-methyl-6-(2-(pyridin-3-yl)-5-(trifluoromethyl)phenoxy)-3-(trifluoromethyl)-[1,2,4]triazolo[4,3-b]pyridazine] | > 6000 | 151 to 153 | > 130

The remaining lines, values ahead:

EC50 (Rev-Erb alpha) [nM] | melting point [°C] | Emax (Rev-Erb alpha) [%] | SMILES
< 100 | 138.9 |  | FC(F)(F)c1ccc(-c2ccccc2)c(Oc2ccc3nnc(Cl)n3n2)c1 [Cpd.4-33, 6-(4-trifluoromethyl-biphenyl-2-yloxy)-3-chloro-[1,2,4]triazolo[4,3-b]pyridazine]
100 to 1000 | 139.5 to 141.8 |  | CCc1cc(Oc2cc(C(F)(F)F)ccc2-c2ccccc2)nn2c(Cl)nnc12 [Cpd.5-13, 3-chloro-8-ethyl-6-(4-trifluoromethyl-biphenyl-2-yloxy)-[1,2,4]triazolo[4,3-b]pyridazine]
100 to 1000 | 124 to 128 |  | CC(C)CNc1ccc(-c2ccccc2)c(Oc2ccc3nnc(Cl)n3n2)c1 [Cpd.4-51, 3-chloro-6-(4-N-2-methylpropylamino-biphenyl-2-yloxy)-[1,2,4]triazolo[4,3-b]pyridazine]
100 to 1000 | 229 to 231 |  | Cc1ccc2c(Oc3cc(C(F)(F)F)ccc3-c3ccccc3)nn3c(Cl)nnc3c2c1 [Cpd.5-9, 3-chloro-6-(4-trifluoromethyl-biphenyl-2-yloxy)-9-methyl-[1,2,4]triazolo[3,4-a]phthalazine]
100 to 1000 | 175 to 176 |  | COc1ccc(C(=O)c2ccccc2)c(Oc2ccc3nnc(Cl)n3n2)c1 [Cpd.4-144, 3-chloro-6-(2-benzoyl-5-methoxy-phenoxy)-[1,2,4]triazolo[4,3-b]pyridazine]
< 100 | 55 to 58 |  | CCN(CC)c1ccc(Oc2ccc3nnc(Cl)n3n2)c(-c2ccccc2)c1 [Cpd.4-55, 3-chloro-6-(5-diethylamino-biphenyl-2-yloxy)-[1,2,4]triazolo[4,3-b]pyridazine]
100 to 1000 | 213 to 215 |  | COc1ncc(-c2cc(Cl)ccc2Oc2nn3c(Cl)nnc3c3ccccc23)cn1 [Cpd.5-57, 3-chloro-6-(4-chloro-2-(2-methoxypyrimidin-5-yl)phenoxy)-[1,2,4]triazolo[3,4-a]phthalazine]
100 to 1000 | 106.2 |  | Fc1cccc(-c2cc(F)ccc2Oc2ccc3nnc(Cl)n3n2)c1 [Cpd.4-120, 3-chloro-6-(3′,5-difluorobiphenyl-2-yloxy)-[1,2,4]triazolo[4,3-b]pyridazine]
< 100 | 81.9 |  | Clc1ccccc1-c1ccccc1Oc1ccc2nnc(Cl)n2n1 [Cpd.4-25, 6-(2′-chloro-biphenyl-2-yloxy)-3-chloro-[1,2,4]triazolo[4,3-b]pyridazine]
100 to 1000 | 119 to 122 |  | CN(Cc1ccccc1)Cc1ccc(-c2ccccc2)c(Oc2ccc3nnc(Cl)n3n2)c1 [Cpd.4-60, 3-chloro-6-(4-N-methyl-N-benzylaminomethyl-biphenyl-2-yloxy)-[1,2,4]triazolo[4,3-b]pyridazine]
< 100 | 62 to 67 |  | CC(C)CNc1ccc(Oc2ccc3nnc(Cl)n3n2)c(-c2ccccc2)c1 [Cpd.4-67, 3-chloro-6-(5-isobutylamino-biphenyl-2-yloxy)-[1,2,4]triazolo[4,3-b]pyridazine]
< 100 | 170 to 175 |  | CC(C)Nc1ccc(-c2ccccc2)c(Oc2ccc3nnc(Cl)n3n2)c1 [Cpd.4-189, 3-chloro-6-(4-isopropylamino-biphenyl-2-yloxy)-[1,2,4]triazolo[4,3-b]pyridazine]
< 100 | 175 to 177 |  | FC(F)(F)c1ccc(-c2cccnc2)c(Oc2nn3c(Cl)nnc3c3ccccc23)c1 [Cpd.5-15, 3-chloro-6-(2-(pyridin-3-yl)-5-(trifluoromethyl)phenoxy)-[1,2,4]triazolo[3,4-a]phthalazine]
100 to 1000 | 172 |  | Fc1ccc(Oc2ccc3nnc(Cl)n3n2)c(-c2ccc(Cl)cc2)c1 [Cpd.4-118, 3-chloro-6-(4′-chloro-5-fluorobiphenyl-2-yloxy)-[1,2,4]triazolo[4,3-b]pyridazine]
